According to ChEMBL document CHEMBL2040775, “Evaluation of novel antioxidant triterpenoid saponins from the halophyte Salicornia herbacea” (Bioorg Med Chem Lett, 2012):
Activity calls are given as the source filed them. No cut-off for these calls is given here.

Assays:
Format in all cases: functional
[1] = test system: Radical scavenging activity; assay: Antioxidant activity assessed as DPPH radical scavenging activity after 30 mins by spectrophotometry
[2] = Antioxidant activity assessed as authentic peroxynitrite radical scavenging activity after 5 mins by spectrophotometry
[3] = Antioxidant activity assessed as morpholinosydnonimine-derived peroxynitrite free radical scavenging activity after 5 mins by spectrophotometry
[4] = Antioxidant activity assessed as authentic peroxynitrite radical scavenging activity at 50 ug/ml after 5 mins by spectrophotometry
[5] = Antioxidant activity assessed as morpholinosydnonimine-derived peroxynitrite free radical scavenging activity at 50 ug/ml after 5 mins by spectrophotometry
[6] = test system: Radical scavenging activity; assay: Antioxidant activity assessed as DPPH radical scavenging activity a 50 ug/ml after 30 mins by spectrophotometry
[7] = test system: Radical scavenging activity; assay: Antioxidant activity assessed as DPPH radical scavenging activity at 10 ug/ml after 30 mins by spectrophotometry
[8] = test system: Radical scavenging activity; assay: Antioxidant activity assessed as DPPH radical scavenging activity at 100 ug/ml after 30 mins by spectrophotometry

| Structure (SMILES) | IC50 [1] [µM] | IC50 [2] [µM] | IC50 [3] [µM] | Activity [4] | Activity [5] | Activity [6] [%] | Activity [7] [%] | Activity [8] [%] |
| --- | --- | --- | --- | --- | --- | --- | --- | --- |
| C=C1CC[C@]2(C(=O)O[C@@H]3O[C@H](CO)[C@@H](O)[C@H](O)[C@H]3O)CC[C@]3(C)C(=CC[C@@H]4[C@@]5(C)CC[C@H](O[C@@H]6O[C@H](C(=O)O)[C@@H](O)[C@H](O)[C@H]6O)[C@@](C)(CO)[C@@H]5CC[C@]43C)[C@@H]2C1 | 390 | < 1 | < 1 | Active | Active |  |  |  |
| O=C1O[C@H]([C@@H](O)CO)C(O)=C1O [ASCORBIC ACID] | < 20 | 1.5 | < 1 |  |  | 95.1 | 94.9 | 95 |
| Cc1cc(C(C)(C)C)c(O)c(C(C)(C)C)c1 [BUTYLATED HYDROXYTOLUENE] | < 200 |  |  |  |  | 54.9 | 39.7 | 68 |
| CC(C)(S)[C@@H](N)C(=O)O [PENICILLAMINE] |  | < 1 | < 1 |  |  |  |  |  |

Now from value to compound, other results behind:

| IC50 [1] [µM] | IC50 [2] [µM] | IC50 [3] [µM] | Structure (SMILES) | Activity [4] | Activity [5] | Activity [6] [%] | Activity [7] [%] | Activity [8] [%] |
| --- | --- | --- | --- | --- | --- | --- | --- | --- |
| > 500 | 21.9 | 20.4 | CC1(C)CC[C@]2(C(=O)O)CC[C@]3(C)C(=CC[C@@H]4[C@@]5(C)CC[C@H](O[C@@H]6O[C@H](C(=O)O)[C@@H](O)[C@H](O)[C@H]6O)[C@@](C)(C=O)[C@@H]5CC[C@]43C)[C@@H]2C1 | Active | Active |  |  |  |
| > 500 | 4.9 | 6.6 | C=C1CC[C@]2(C(=O)O[C@@H]3O[C@H](CO)[C@@H](O)[C@H](O)[C@H]3O)CC[C@]3(C)C(=CC[C@@H]4[C@@]5(C)CC[C@H](O[C@@H]6O[C@H](C(=O)O)[C@@H](O)[C@H](O)[C@H]6O)[C@@](C)(C=O)[C@@H]5CC[C@]43C)[C@@H]2C1 | Active | Active |  |  |  |
| > 500 | 7.1 | 1.4 | CC1(C)CC[C@]2(C(=O)O[C@@H]3O[C@H](CO)[C@@H](O)[C@H](O)[C@H]3O)CC[C@]3(C)C(=CC[C@@H]4[C@@]5(C)CC[C@H](O[C@@H]6O[C@H](C(=O)O)[C@@H](O)[C@H](O)[C@H]6O)[C@@](C)(C=O)[C@@H]5CC[C@]43C)[C@@H]2C1 | Active | Active |  |  |  |
